Test system: 242566-281-R-J2-PDC complex spheroid viability
Assay: Anticancer human tumor 242566-281-R-J2-PDC patient-derived pancreatic carcinoma cell line growth inhibition [RAS]
Conditions: for IC50: curve of first compound; for viability, T/C: stronger effect = lower value
Method in brief: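 Agents were tested in combination matrices in half-log decrements from a top concentration at or near clinical Cmax (10 microM if undetermined). Targets were multi-cell spheroids of tumour lines plus HUVEC and MSC stromal cells.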
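Also: spheroids exposed to compound for 7 days before readout.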
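For viability, T/C in this document: 100% = DMSO vehicle control wells.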

## C=CC(=O)N1CCN(c2nc(OCC3CCCN3C)nc3c(F)c(-c4nc(N)cc(C)c4C(F)(F)F)c(Cl)cc23)C(C)C1 (centres undefined) + CCn1c(-c2cccnc2C(C)OC)c2c3cc(ccc31)N1CCOC(CC(NC(=O)C(C(C)C)N(C)C(=O)C3(F)CCN(C(=O)C#CC(C)(C)N(C)C)CC3)C(=O)N3CCCC(N3)C(=O)OCC(C)(C)C2)C1
Second compound 0.000949 µM
  IC50: > 1 µM
Second compound 0.003 µM
  IC50: > 1 µM
Second compound 0.00949 µM
  IC50: > 1 µM
Second compound 0.03 µM
  IC50: > 1 µM
Second compound 0.0949 µM
  IC50: > 1 µM
Second compound 0.3 µM
  IC50: > 1 µM
Second compound 0.000949 µM, first compound 0.00316 µM
  viability, T/C: 111%
Second compound 0.000949 µM, first compound 0.01 µM
  viability, T/C: 98.5%
Second compound 0.000949 µM, first compound 0.0316 µM
  viability, T/C: 88.2%
Second compound 0.000949 µM, first compound 0.1 µM
  viability, T/C: 113%
Second compound 0.000949 µM, first compound 0.316 µM
  viability, T/C: 93.8%
Second compound 0.000949 µM, first compound 1 µM
  viability, T/C: 79.2%
Second compound 0.003 µM, first compound 0.00316 µM
  viability, T/C: 115%
Second compound 0.003 µM, first compound 0.01 µM
  viability, T/C: 93.2%
Second compound 0.003 µM, first compound 0.0316 µM
  viability, T/C: 99.8%
Second compound 0.003 µM, first compound 0.1 µM
  viability, T/C: 84.8%
Second compound 0.003 µM, first compound 0.316 µM
  viability, T/C: 95.4%
Second compound 0.003 µM, first compound 1 µM
  viability, T/C: 86.7%
Second compound 0.00949 µM, first compound 0.00316 µM
  viability, T/C: 103%
Second compound 0.00949 µM, first compound 0.01 µM
  viability, T/C: 87%
Second compound 0.00949 µM, first compound 0.0316 µM
  viability, T/C: 79.5%
Second compound 0.00949 µM, first compound 0.1 µM
  viability, T/C: 76%
Second compound 0.00949 µM, first compound 0.316 µM
  viability, T/C: 93.1%
Second compound 0.00949 µM, first compound 1 µM
  viability, T/C: 83.9%
Second compound 0.03 µM, first compound 0.00316 µM
  viability, T/C: 98.6%
Second compound 0.03 µM, first compound 0.01 µM
  viability, T/C: 110%
Second compound 0.03 µM, first compound 0.0316 µM
  viability, T/C: 97.5%
Second compound 0.03 µM, first compound 0.1 µM
  viability, T/C: 92.7%
Second compound 0.03 µM, first compound 0.316 µM
  viability, T/C: 78%
Second compound 0.03 µM, first compound 1 µM
  viability, T/C: 99.8%
Second compound 0.0949 µM, first compound 0.00316 µM
  viability, T/C: 86.6%
Second compound 0.0949 µM, first compound 0.01 µM
  viability, T/C: 93.5%
Second compound 0.0949 µM, first compound 0.0316 µM
  viability, T/C: 92.6%
Second compound 0.0949 µM, first compound 0.1 µM
  viability, T/C: 86.9%
Second compound 0.0949 µM, first compound 0.316 µM
  viability, T/C: 87%
Second compound 0.0949 µM, first compound 1 µM
  viability, T/C: 90.5%
Second compound 0.3 µM, first compound 0.00316 µM
  viability, T/C: 85.7%
Second compound 0.3 µM, first compound 0.01 µM
  viability, T/C: 87.3%
Second compound 0.3 µM, first compound 0.0316 µM
  viability, T/C: 89.2%
Second compound 0.3 µM, first compound 0.1 µM
  viability, T/C: 75.7%
Second compound 0.3 µM, first compound 0.316 µM
  viability, T/C: 95.1%
Second compound 0.3 µM, first compound 1 µM
  viability, T/C: 81.7%

## CC1(C)CCC(Nc2ncc(C(F)(F)F)c(-c3c[nH]c4c(P(C)(C)=O)c(C#N)ccc34)n2)CN1 (centres undefined) + C#Cc1c(F)ccc2cc(O)cc(-c3ncc4c(N5CC6CCC(C5)N6)nc(OCC56CCCN5CC(F)C6)nc4c3F)c12
Second compound 0.0316 µM
  IC50: > 0.3 µM
Second compound 0.1 µM
  IC50: > 0.3 µM
Second compound 0.316 µM
  IC50: > 0.3 µM
Second compound 1 µM
  IC50: > 0.3 µM
Second compound 3.16 µM
  IC50: > 0.3 µM
Second compound 10 µM
  IC50: < 0.000949 µM
Second compound 0.0316 µM, first compound 0.000949 µM
  viability, T/C: 90.3%
Second compound 0.0316 µM, first compound 0.003 µM
  viability, T/C: 111%
Second compound 0.0316 µM, first compound 0.00949 µM
  viability, T/C: 85.6%
Second compound 0.0316 µM, first compound 0.03 µM
  viability, T/C: 86.4%
Second compound 0.0316 µM, first compound 0.0949 µM
  viability, T/C: 84.9%
Second compound 0.0316 µM, first compound 0.3 µM
  viability, T/C: 88.8%
Second compound 0.1 µM, first compound 0.000949 µM
  viability, T/C: 78.1%
Second compound 0.1 µM, first compound 0.003 µM
  viability, T/C: 81.8%
Second compound 0.1 µM, first compound 0.00949 µM
  viability, T/C: 71.6%
Second compound 0.1 µM, first compound 0.03 µM
  viability, T/C: 81.7%
Second compound 0.1 µM, first compound 0.0949 µM
  viability, T/C: 81.2%
Second compound 0.1 µM, first compound 0.3 µM
  viability, T/C: 81.3%
Second compound 0.316 µM, first compound 0.000949 µM
  viability, T/C: 70.7%
Second compound 0.316 µM, first compound 0.003 µM
  viability, T/C: 66.6%
Second compound 0.316 µM, first compound 0.00949 µM
  viability, T/C: 62.3%
Second compound 0.316 µM, first compound 0.03 µM
  viability, T/C: 60.5%
Second compound 0.316 µM, first compound 0.0949 µM
  viability, T/C: 62.9%
Second compound 0.316 µM, first compound 0.3 µM
  viability, T/C: 62.9%
Second compound 1 µM, first compound 0.000949 µM
  viability, T/C: 59.4%
Second compound 1 µM, first compound 0.003 µM
  viability, T/C: 59.8%
Second compound 1 µM, first compound 0.00949 µM
  viability, T/C: 49.3%
Second compound 1 µM, first compound 0.03 µM
  viability, T/C: 47.4%
Second compound 1 µM, first compound 0.0949 µM
  viability, T/C: 55.1%
Second compound 1 µM, first compound 0.3 µM
  viability, T/C: 59.5%
Second compound 3.16 µM, first compound 0.000949 µM
  viability, T/C: 50.8%
Second compound 3.16 µM, first compound 0.003 µM
  viability, T/C: 57.5%
Second compound 3.16 µM, first compound 0.00949 µM
  viability, T/C: 48.4%
Second compound 3.16 µM, first compound 0.03 µM
  viability, T/C: 47.4%
Second compound 3.16 µM, first compound 0.0949 µM
  viability, T/C: 49.8%
Second compound 3.16 µM, first compound 0.3 µM
  viability, T/C: 53.3%
Second compound 10 µM, first compound 0.000949 µM
  viability, T/C: 45.2%
Second compound 10 µM, first compound 0.003 µM
  viability, T/C: 50%
Second compound 10 µM, first compound 0.00949 µM
  viability, T/C: 44.7%
Second compound 10 µM, first compound 0.03 µM
  viability, T/C: 50.2%
Second compound 10 µM, first compound 0.0949 µM
  viability, T/C: 53.4%
Second compound 10 µM, first compound 0.3 µM
  viability, T/C: 44.1%
